# pKi: −log10 of the molar value. *1 amine or outer side, *2 acyl side, *3 side chain or, on linkers, in order; H or OH if unused. Where a SMILES comes first, the peptide text is derived from it. Bridges are numbered along the chain shown (N, C = ends). [ ]: non-standard residue; d: D form. TATA = O=C(CC[*:1])N1CN(C(=O)CC[*:2])CN(C(=O)CC[*:3])C1; 1Nal = N[C@@H](Cc1cccc2ccccc12)C(=O)O; Hyp = O=C(O)[C@@H]1C[C@@H](O)CN1; NMeT = CN[C@H](C(=O)O)[C@@H](C)O; hArg = N=C(N)NCCCC[C@H](N)C(=O)O
# Target: T1, human Nectin-4 (Homo sapiens, UniProt Q96NY8)
# T1 sequence (Q96NY8 32-510): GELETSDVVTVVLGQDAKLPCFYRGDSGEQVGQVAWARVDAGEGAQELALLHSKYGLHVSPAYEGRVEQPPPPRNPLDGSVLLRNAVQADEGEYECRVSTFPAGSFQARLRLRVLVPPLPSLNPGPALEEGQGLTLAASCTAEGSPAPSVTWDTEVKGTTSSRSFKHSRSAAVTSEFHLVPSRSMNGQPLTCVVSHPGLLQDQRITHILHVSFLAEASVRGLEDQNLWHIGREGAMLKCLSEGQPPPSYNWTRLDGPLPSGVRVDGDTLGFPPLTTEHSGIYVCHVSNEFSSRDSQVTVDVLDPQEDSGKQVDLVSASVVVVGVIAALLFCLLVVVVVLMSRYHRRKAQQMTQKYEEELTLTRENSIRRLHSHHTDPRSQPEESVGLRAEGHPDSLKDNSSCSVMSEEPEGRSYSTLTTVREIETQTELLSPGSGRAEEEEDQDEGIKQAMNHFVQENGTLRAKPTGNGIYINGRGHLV
# Experiment: Nectin-4 competition binding assay (fluorescence polarisation)
# Details: competition with fluorescent peptide SEQ ID NO: 217; read-out: Ki
# How it was run: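 Ki derived by cubic-equation fit of mP data, with tracer peptide concentration, its Kd and Nectin-4 level as fixed inputs. Competition set up by adding 2-fold peptide dilutions (≤5% DMSO), then Nectin-4, then fluorescent peptide; polarisation measured as for direct binding.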
row,pKi,SMILES
1,7.62,"CC[C@H](C)[C@@H]1NC(=O)[C@@H]2CCCN2C(=O)[C@H]([C@@H](C)O)NC(=O)[C@H](CO)NC(=O)[C@H](Cc2c[nH]c3ccccc23)NC(=O)[C@H](CC(N)=O)NC(=O)[C@H](CCCCN)NC(=O)[C@H](CCSC)NC(=O)[C@@H]2CSCCC(=O)N3CN(CN(C3)C(=O)CCSC[C@H](NC(C)=O)C(=O)N3CCC[C@H]3C(=O)N[C@@H](Cc3ccccc3)C(=O)NCC(=O)N2)C(=O)CCSC[C@@H](C(N)=O)NC(=O)[C@H](Cc2c[nH]c3ccccc23)NC1=O [BCY7665, Ac-(SEQ ID NO: 19)] (Ac-CPFGCMKNWSTPIWC-NH2; linker 1-5-15 via TATA; C-terminus assumed)"
2,7.57,"CC[C@H](C)[C@@H]1NC(=O)[C@@H]2CCCN2C(=O)[C@H]([C@@H](C)O)NC(=O)[C@H](CO)NC(=O)[C@H](Cc2c[nH]c3ccccc23)NC(=O)[C@H](CCCCN)NC(=O)[C@H](CCCCNC(=N)N)NC(=O)[C@H](CCSC)NC(=O)[C@@H]2CSCCC(=O)N3CN(CN(C3)C(=O)CCSC[C@H](NC(C)=O)C(=O)N3CCC[C@H]3C(=O)N[C@@H](Cc3ccccc3)C(=O)N[C@H](CC(=O)O)C(=O)N2)C(=O)CCSC[C@@H](C(N)=O)NC(=O)[C@H](Cc2c[nH]c3ccccc23)NC1=O [BCY7822, Ac-(SEQ ID NO: 122)]"
3,7.39,"CC[C@H](C)[C@@H]1NC(=O)[C@@H]2CCCN2C(=O)[C@H]([C@@H](C)O)NC(=O)[C@H](CO)NC(=O)[C@H](Cc2c[nH]c3ccccc23)NC(=O)[C@H](CC(N)=O)NC(=O)[C@H](CCCCNC(=N)N)NC(=O)[C@H](CCSC)NC(=O)[C@@H]2CSCCC(=O)N3CN(CN(C3)C(=O)CCSC[C@H](NC(C)=O)C(=O)N3CCC[C@H]3C(=O)N[C@@H](Cc3ccccc3)C(=O)N[C@H](CCC(=O)O)C(=O)N2)C(=O)CCSC[C@@H](C(N)=O)NC(=O)[C@H](Cc2c[nH]c3ccccc23)NC1=O [BCY7903, Ac-(SEQ ID NO: 140)]"
4,8.00,"CC[C@H](C)[C@@H]1NC(=O)[C@@H]2CCCN2C(=O)[C@H]([C@@H](C)O)NC(=O)[C@H](CO)NC(=O)[C@H](Cc2c[nH]c3ccccc23)NC(=O)[C@H](CC(N)=O)NC(=O)[C@H](CCCCNC(=N)N)NC(=O)[C@H](CCSC)NC(=O)[C@@H]2CSCCC(=O)N3CN(CN(C3)C(=O)CCSC[C@H](NC(C)=O)C(=O)N3CCC[C@H]3C(=O)N[C@@H](Cc3ccccc3)C(=O)N[C@H](CO)C(=O)N2)C(=O)CCSC[C@@H](C(N)=O)NC(=O)[C@H](Cc2c[nH]c3ccccc23)NC1=O [BCY7907, Ac-(SEQ ID NO: 143)]"
5,6.72,"CC[C@H](C)[C@@H]1NC(=O)[C@@H]2CCCN2C(=O)[C@H]([C@@H](C)O)N(C)C(=O)[C@H](CO)NC(=O)[C@H](Cc2c[nH]c3ccccc23)NC(=O)[C@H](CC(N)=O)NC(=O)[C@H](CCCCNC(=N)N)NC(=O)[C@@H]2CSCCC(=O)N3CN(CN(C3)C(=O)CCSC[C@H](NC(C)=O)C(=O)N3CCC[C@H]3C(=O)N[C@@H](Cc3ccccc3)C(=O)N[C@H](CC(=O)O)C(=O)N2)C(=O)CCSC[C@@H](C(N)=O)NC(=O)[C@H](Cc2c[nH]c3ccccc23)NC1=O [BCY7979, Ac-(SEQ ID NO: 152)] (Ac-CPF[dD]C[hArg]NWS[NMeT]PIWC-NH2; linker 1-5-14 via TATA; C-terminus assumed)"
6,6.87,"CC[C@H](C)[C@@H]1NC(=O)[C@H](CCCNC(=N)N)NC(=O)[C@H](CC(N)=O)NC(=O)[C@@H]2CSCCC(=O)N3CN(CN(C3)C(=O)CCSC[C@H](NC(=O)[C@H](Cc3c[nH]c4ccccc34)NC(=O)[C@H](CCCCN)NC(=O)[C@H](CCC(N)=O)NC(C)=O)C(=O)N[C@@H](C)C(=O)N3CCC[C@H]3C(=O)N[C@@H](CC(C)C)C(=O)N[C@@H](CO)C(=O)N[C@@H](CC(=O)O)C(=O)N[C@@H](Cc3ccc(O)cc3)C(=O)N[C@@H](Cc3cccc4ccccc34)C(=O)N2)C(=O)CCSC[C@@H](C(N)=O)NC1=O [BCY7998, Ac-QKW-(SEQ ID NO: 153)] (Ac-QKWCAPLSDY[1Nal]CNRIC-NH2; linker 4-12-16 via TATA; C-terminus assumed)"
7,7.21,"CC[C@H](C)[C@@H]1NC(=O)[C@@H]2CCCN2C(=O)[C@H]([C@@H](C)O)NC(=O)[C@H](CO)NC(=O)[C@H](Cc2c[nH]c3ccccc23)NC(=O)[C@H](CC(N)=O)NC(=O)[C@H](CCCCNC(=N)N)NC(=O)[C@H](CCSC)NC(=O)[C@@H]2CSCCC(=O)N3CN(CN(C3)C(=O)CCSC[C@H](NC(=O)[C@H](CC(=O)O)NC(=O)[C@H](CC(=O)O)NC(=O)[C@H](CC(=O)O)NC(C)=O)C(=O)N3CCC[C@H]3C(=O)N[C@@H](Cc3ccccc3)C(=O)N[C@H](CC(=O)O)C(=O)N2)C(=O)CCSC[C@@H](C(N)=O)NC(=O)[C@H](Cc2c[nH]c3ccccc23)NC1=O [BCY8028, Ac-DDD-(SEQ ID NO: 115)]"
8,7.67,"CC[C@H](C)[C@@H]1NC(=O)[C@@H]2CCCN2C(=O)[C@H]([C@@H](C)O)NC(=O)[C@H](CO)NC(=O)[C@H](Cc2c[nH]c3ccccc23)NC(=O)[C@H](CC(N)=O)NC(=O)[C@H](CCCCNC(=N)N)NC(=O)[C@H](CC(C)C)NC(=O)[C@@H]2CSCCC(=O)N3CN(CN(C3)C(=O)CCSC[C@H](NC(C)=O)C(=O)N3CCC[C@H]3C(=O)N[C@@H](Cc3ccccc3)C(=O)N[C@H](CC(=O)O)C(=O)N2)C(=O)CCSC[C@@H](C(N)=O)NC(=O)[C@H](Cc2c[nH]c3ccccc23)NC1=O [BCY8039, Ac-(SEQ ID NO: 161)] (Ac-CPF[dD]CL[hArg]NWSTPIWC-NH2; linker 1-5-15 via TATA; C-terminus assumed)"
9,6.77,"CC[C@H](C)[C@@H]1NC(=O)[C@H](CCCNC(=N)N)NC(=O)[C@H](CC(N)=O)NC(=O)[C@@H]2CSCCC(=O)N3CN(CN(C3)C(=O)CCSC[C@H](NC(C)=O)C(=O)N[C@@H](C)C(=O)N3CCC[C@H]3C(=O)N[C@@H](CC(C)C)C(=O)N[C@@H](CO)C(=O)N[C@@H](CC(=O)O)C(=O)N[C@@H](Cc3ccc(O)cc3)C(=O)N[C@@H](Cc3c[nH]c4ccccc34)C(=O)N2)C(=O)CCSC[C@@H](C(N)=O)NC1=O [BCY8044, Ac-(SEQ ID NO: 34)] (Ac-CAPLSDYWCNRIC-NH2; linker 1-9-13 via TATA; C-terminus assumed)"
10,8.10,"CC[C@H](C)[C@@H]1NC(=O)[C@@H]2CCCN2C(=O)[C@H]([C@@H](C)O)NC(=O)[C@H](CO)NC(=O)[C@H](Cc2c[nH]c3ccccc23)NC(=O)[C@H](CC(N)=O)N(C)C(=O)[C@H](CCCCNC(=N)N)NC(=O)[C@H](CCSC)NC(=O)[C@@H]2CSCCC(=O)N3CN(CN(C3)C(=O)CCSC[C@H](NC(C)=O)C(=O)N3CCC[C@H]3C(=O)N[C@@H](Cc3ccccc3)C(=O)N[C@H](CC(=O)O)C(=O)N2)C(=O)CCSC[C@@H](C(N)=O)NC(=O)[C@H](Cc2c[nH]c3ccccc23)NC1=O [BCY8154, Ac-(SEQ ID NO: 174)]"
11,6.75,"CC[C@H](C)[C@H]1C(=O)N[C@@H](Cc2c[nH]c3ccccc23)C(=O)N[C@H](C(N)=O)CSCCC(=O)N2CN3CN(C2)C(=O)CCSC[C@H](NC(C)=O)C(=O)N2CCC[C@H]2C(=O)N[C@@H](Cc2ccccc2)C(=O)N[C@H](CC(=O)O)C(=O)N[C@@H](CSCCC3=O)C(=O)N[C@@H](CCSC)C(=O)N[C@@H](CCCCNC(=N)N)C(=O)N[C@@H](CC(N)=O)C(=O)N[C@@H](Cc2c[nH]c3ccccc23)C(=O)N[C@@H](CO)C(=O)N[C@@H]([C@@H](C)O)C(=O)N2CCC[C@H]2C(=O)N1C [BCY8158, Ac-(SEQ ID NO: 176)]"
12,8.46,"CSCC[C@@H]1NC(=O)[C@@H]2CSCCC(=O)N3CN(CN(C3)C(=O)CCSC[C@H](NC(C)=O)C(=O)N3CCC[C@H]3C(=O)N[C@@H](Cc3cccc4ccccc34)C(=O)N[C@H](CC(=O)O)C(=O)N2)C(=O)CCSC[C@@H](C(N)=O)NC(=O)[C@H](Cc2c[nH]c3ccccc23)NC(=O)[C@@H]2C[C@@H](O)CN2C(=O)[C@@H]2CCCN2C(=O)[C@H]([C@@H](C)O)NC(=O)[C@H](CO)NC(=O)[C@H](Cc2c[nH]c3ccccc23)NC(=O)[C@H](CC(=O)O)NC(=O)[C@H](CCNC(=N)N)NC1=O [BCY8181, Ac-(SEQ ID NO: 186)]"
13,8.35,"CSCC[C@@H]1NC(=O)[C@@H]2CSCCC(=O)N3CN(CN(C3)C(=O)CCSC[C@H](NC(C)=O)C(=O)N3CCC[C@H]3C(=O)N[C@@H](Cc3cccc4ccccc34)C(=O)N[C@H](CCCNC(=N)N)C(=O)N2)C(=O)CCSC[C@@H](C(N)=O)NC(=O)[C@H](Cc2c[nH]c3ccccc23)NC(=O)[C@@H]2C[C@@H](O)CN2C(=O)[C@@H]2CCCN2C(=O)[C@H](CO)NC(=O)[C@H](CO)NC(=O)[C@H](Cc2c[nH]c3ccccc23)NC(=O)[C@H](CC(=O)O)NC(=O)[C@H](CCCCNC(=N)N)NC1=O [BCY8191, Ac-(SEQ ID NO: 195)] (Ac-CP[1Nal][dR]CM[hArg]DWSSP[Hyp]WC-NH2; linker 1-5-15 via TATA; C-terminus assumed)"

row,SMILES,pKi
1,"CSCC[C@@H]1NC(=O)[C@@H]2CSCCC(=O)N3CN(CN(C3)C(=O)CCSC[C@H](NC(C)=O)C(=O)N3CCC[C@H]3C(=O)N[C@@H](Cc3cccc4ccccc34)C(=O)N[C@H](CCCNC(=N)N)C(=O)N2)C(=O)CCSC[C@@H](C(N)=O)NC(=O)[C@H](Cc2c[nH]c3ccccc23)NC(=O)[C@@H]2C[C@@H](O)CN2C(=O)[C@@H]2CCCN2C(=O)[C@H]([C@@H](C)O)NC(=O)[C@H](CCO)NC(=O)[C@H](Cc2c[nH]c3ccccc23)NC(=O)[C@H](CC(=O)O)NC(=O)[C@H](CCCCNC(=N)N)NC1=O [BCY8188, Ac-(SEQ ID NO: 193)]",7.70
